Reference: ChEMBL document CHEMBL3600303, “The N-Terminal T-T Motif of a Third-Generation HIV-1 Fusion Inhibitor Is Not Required for Binding Affinity and Antiviral Activity” (J Med Chem, 2015)
Active and inactive are the calls of the source. No cut-off for these calls is given here.

What was measured:
[1] = tested on: Serum; assay: Metabolic stability in Sprague-Dawley rat serum at 4 mg/kg, ip measured at 0.5 to 4 hrs post dose; format: ADME, organism-based; conditions: in vivo
[2] = molecular target: Envelope glycoprotein gp160 (Human immunodeficiency virus 1) (UniProt Q72502); assay: Binding affinity to HIV1 NL4-3 gp41 N-terminal heptad repeat G36D mutant after 30 mins by CD spectroscopic analysis
[3] = molecular target: Envelope glycoprotein gp160 (Human immunodeficiency virus 1) (UniProt Q72502); assay: Binding affinity to HIV1 NL4-3 gp41 N-terminal heptad repeat I37T mutant after 30 mins by CD spectroscopic analysis
[4] = molecular target: Envelope glycoprotein gp160 (Human immunodeficiency virus 1) (UniProt Q72502); assay: Binding affinity to HIV1 NL4-3 gp41 N-terminal heptad repeat V38A/N42T double mutant after 30 mins by CD spectroscopic analysis
[5] = molecular target: Envelope glycoprotein gp160 (Human immunodeficiency virus type 1 group M subtype B (isolate HXB2)(HIV-1)) (UniProt P04578); assay: Binding affinity to HIV-1 HXB2 gp41 N-terminal heptad repeat assessed as thermostability of protein-compound complex at 10 uM after 30 mins by CD spectroscopic analysis; conditions: Human immunodeficiency virus 1
[6] = Thermostability of the compound in PBS assessed as melting temperature at 20 uM by CD spectroscopic analysis; format: physicochemical; conditions: buffer
[7] = tested on: Envelope glycoprotein gp160 (Human immunodeficiency virus 1), Q72502 [V38A]; assay: Binding affinity to HIV1 NL4-3 gp41 N-terminal heptad repeat V38A mutant after 30 mins by CD spectroscopic analysis
[8] = molecular target: Envelope glycoprotein gp160 (Human immunodeficiency virus 1) (UniProt Q72502); assay: Binding affinity to HIV1 NL4-3 gp41 N-terminal heptad repeat I37T/N43K double mutant after 30 mins by CD spectroscopic analysis
[9] = tested on: Human immunodeficiency virus 1; assay: Antiviral activity against HIV-1 SC42261.8 pseudovirus infected in human TZM-bl cells assessed as inhibition of viral entry into cells after 48 hrs by single-cycle infection assay; format: functional, organism-based; conditions: Human immunodeficiency virus 1, SC42261.8, TZM-bl
[10] = molecular target: Envelope glycoprotein gp160 (Human immunodeficiency virus 1) (UniProt Q72502); assay: Binding affinity to HIV1 NL4-3 gp41 N-terminal heptad repeat N43K mutant after 30 mins by CD spectroscopic analysis
[11] = molecular target: Envelope glycoprotein gp160 (Human immunodeficiency virus 1) (UniProt Q72502); assay: Binding affinity to HIV1 NL4-3 gp41 N-terminal heptad repeat Q40H mutant after 30 mins by CD spectroscopic analysis
[12] = tested on: Human immunodeficiency virus 1; assay: Antiviral activity against wild type HIV1 NL4-3 infected in human TZM-bl cells assessed as inhibition of viral replication after 2 days by luciferase reporter gene assay; format: functional, organism-based; conditions: Human immunodeficiency virus 1, NL4-3, TZM-bl, 48 h
[13] = tested on: Human immunodeficiency virus 1; assay: Antiviral activity against HIV-1 SF162 pseudovirus infected in human TZM-bl cells assessed as inhibition of viral entry into cells after 48 hrs by single-cycle infection assay; format: functional, organism-based; conditions: Human immunodeficiency virus 1, SF162, TZM-bl
[14] = molecular target: Envelope glycoprotein gp160 (Human immunodeficiency virus type 1 group M subtype B (isolate HXB2)(HIV-1)) (UniProt P04578); assay: Binding affinity to HIV-1 HXB2 gp41 N-terminal heptad repeat assessed as increase in 6-helix bundle thermostability at 10 uM after 30 mins by CD spectroscopic analysis; conditions: Human immunodeficiency virus 1
[15] = tested on: Human immunodeficiency virus 1; assay: Antiviral activity against HIV-1 ZM214M.15 pseudovirus infected in human TZM-bl cells assessed as inhibition of viral entry into cells after 48 hrs by single-cycle infection assay; format: functional, organism-based; conditions: Human immunodeficiency virus 1, ZM214M.15, TZM-bl
[16] = tested on: Human immunodeficiency virus 1; assay: Antiviral activity against HIV1 NL4-3 pseudovirus infected in human TZM-bl cells assessed as inhibition of viral entry into cells after 48 hrs by single-cycle infection assay; format: functional, organism-based; conditions: Human immunodeficiency virus 1, NL4-3, TZM-bl
[17] = molecular target: Envelope glycoprotein gp160 (Human immunodeficiency virus type 1 group M subtype B (isolate HXB2)(HIV-1)) (UniProt P04578); assay: Binding affinity to HIV-1 HXB2 gp41 N-terminal heptad repeat assessed as thermostability of compound after 30 mins by CD spectroscopic analysis; conditions: Human immunodeficiency virus 1
[18] = molecular target: Envelope glycoprotein gp160 (Human immunodeficiency virus type 1 group M subtype B (isolate HXB2)(HIV-1)) (UniProt P04578); assay: Binding affinity to HIV-1 HXB2 gp41 N-terminal heptad repeat assessed as thermostability of compound at 10 uM after 30 mins by CD spectroscopic analysis; conditions: Human immunodeficiency virus 1

Q: Which results are given for “H-MTWEAWDRAIAEYAARIEALIRAAQEQQEKNEAALREL-OH”?
A: Stability [1]: Unstable; Activity [2]: Active; Activity [3]: Active; Activity [4]: Active; Tm [5]: 88.1 °C; Stability [6]: Stable; Activity [7]: Active; Activity [8]: Active; IC50 [9]: 1.65 nM; Activity [10]: Active; Activity [11]: Active; IC50 [12]: 0.25 nM; IC50 [13]: 4.98 nM; Activity [14]: Active; IC50 [15]: 0.74 nM; IC50 [16]: 0.46 nM

Q: Which Tm [17] does the source give for H-TTWEAWDRAIAEYAARIEALIR-OH here?
A: 59.1 °C

Q: What about the IC50 [16] of the same substance?
A: 955 nM

Q: Which results are given for H-MTWEAWDRAIAEYAARIEALIR-OH?
A: Tm [17]: 68.2 °C; IC50 [16]: 86.7 nM

Q: Which results are given for H-TTWEEWDKKIEEYTKKIEELIKKS-OH?
A: Tm [18]: 66.3 °C; IC50 [12]: 26.1 nM; IC50 [16]: 46.8 nM
